Measurements published in US8771953B2, “Evaluation of the potential risk of drug induced mood disturbance and suicide: use of a dedicated platform” (Biocortech, priority 2008, dated 2014).
Like-named read-outs stand apart in the source and are kept apart here. Marks after values point to notes of the source that are not given here.

Tests used:
ADAR1b mRNA = assay: Q-PCR of ADAR1b mRNA expression in SH-SY5Y cells; type: cell-based; conditions: Homo sapiens, 10 micromolar, 24 hours, read-out: QPCR: RNA expresion (% of variation) ADAR1b
Protocol: (§1) The SH-SY5Y Human neuroblastoma cell line was purchased from ECACC (EC94030304 from the European Collection of Cell Cultures (ECACC)). The cell line SH-SY5Y is a thrice-cloned neuroblastoma, originally from SK-N-SH and first reported in 1978. A neuroblast-like subclone of SK-N-SH, named SH-SY, was subcloned as SH-SY5, which was subcloned again as SH-SY5Y (Biedler J L et al. Cancer Res. 1978; 38:3751-7). Cells were cultured in high glucose D-MEM medium (Sigma, ref D6546) supplemented with 10% dialysed FCS (PAA, ref. A15-507, lot A50708-0050), 2 mM Glutamine (Sigma, G7513) and a 1× mix of Antibiotic-Antimycotic Stabilized (Sigma, ref. A5955) at 37° C. under a humidified atmosphere of 5% CO2. The day preceeding drug or hIFNα treatment, SH-SY5Y cells were plated in 6-well plates at a density of 10^6 cells/well. One 6-well plate was used per experimental condition (concentration or treatment duration). The day after plating, culture medium was removed and cells were incubated for 24 hours with a 10 μM solution of the compound to be tested molecules or a 1000 IU/ml solution of hIFNα (PBL biomedical laboratories). For hIFNα dose-response experiment cells were incubated with 1, 10, 100, and 1000 IU/ml of hIFNα solutions. For hIFNα time-course experiment cells were treated for 24, 48, or 72 hours with a 1000 IU/ml solution of hIFNα. After the different treatments, cells were directly lysed in RLT lysis buffer and total RNA purified according to manufacturer's protocol (Qiagen, RNeasy Plus mini kit, ref. 74134). Total RNA was then reverse transcribed with Thermoscript RT-PCR system Plus Taq (Invitrogen, 11146-032) and the resulting cDNA used for CE-SSCP and quantitative real-time PCR.
(§2) In order to quantify levels of 5-HT2CR, ADAR1 and ADAR2 mRNA expression in SH-SY5Y cells or in prefrontal cortex, total blood and skin of Balb/cJ mice, first-strand cDNA was synthesized by reverse transcription and subjected to TaqMan quantitative real-time PCR analysis (Applied Biosystems). All probes and primers used for the quantitative PCRs were from Applied Bio systems (Gene Expression Assays, Assay-On-Demand) (see Table 1, Applied Biosystems primers and probes references): […]
(§3) Human GAPDH (product no. 4326317E; Applied Biosystems) or mouse GAPDH (product no. 4352339E; Applied Biosystems) were included in each multiplex PCR as an internal control. Real-time PCR and subsequent analysis were performed with a 48-well block StepOne RT PCR system (Applied Biosystems). Quantification of target gene expression in all samples was normalized to GAPDH expression by the equation Ct (target)−Ct (GAPDH)=ΔCt, where Ct is the threshold cycle number. The mean ΔCt value of samples from untreated mice or cells was determined and used as a reference point for the samples corresponding to treated animals or cells. Differences between untreated and treated animals or cells, including individual variation were calculated by the equation (ΔCt (individual treated samples)−ΔCt (mean of untreated samples)=ΔΔCt). Changes in target gene expression (n-fold) in each sample were calculated by 2^−ΔΔCt, from which the means and standard deviations (SD) were derived.
(§4) The SH-SY5Y Human neuroblastoma cell line was purchased from ECACC. Cells were cultured in high glucose D-MEM medium (Sigma, ref. D6546) supplemented with 10% dialysed FCS (PAA, ref. A15-507, lot A50708-0050), 2 mM Glutamine (Sigma, ref. G7513) and a 1× mix of Antibiotic-Antimycotic Stabilized (Sigma, ref. A5955) at 37° C. under a humidified atmosphere of 5% CO2. The day preceeding hIFNα or drug treatment, SH-SY5Y cells were plated in 6-well plates (Corning, Multiwell Plate, 6 well, Corning CellBIND Surface, ref 3335) at a density of 5; 7 or 9·10^6 cells/well for a 72-, 48- or 24-hour treatment respectively. Six or eight wells of 6-well plates were used per experimental condition (control, concentration or treatment duration).

5-HT2cR mRNA = assay: Editing profile of 5-HT2cR mRNA isoforms by CE-SSCP (nested PCR) in SH-SY5Y cells; enzyme activity indexes worked out from the profile; type: cell-based, human; conditions: for activation at 10 µM: Homo sapiens
ADAR1a mRNA = assay: Q-PCR of ADAR1a mRNA expression in SH-SY5Y cells; type: cell-based; conditions: Homo sapiens, 10 micromolar, 24 hours, read-out: QPCR: RNA expresion (% of variation) ADAR1a
Text: ADAR1a RNA Expression in SH-SY5Y cells (Q-PCR, Applied TaqMan probes ref: Hs 01020780_m1).
as §1, §2, §3, §4

ADAR2 mRNA = assay: Q-PCR of ADAR2 mRNA expression in SH-SY5Y cells; type: cell-based; conditions: Homo sapiens, 10 micromolar, 24 hours, read-out: QPCR: RNA expresion (% of variation) ADAR2
Protocol: as §1, §2, §3, §4

[1] = SH-SY5Y, 10 micromolar, 24 hours, read-out: ENZYME ACTIVIY INDEX (% of variation) ADAR1
[2] = SH-SY5Y, 10 micromolar, 24 hours, read-out: ENZYME ACTIVIY INDEX (% of variation) ADAR1 + 2
[3] = SH-SY5Y, 10 micromolar, 24 hours, read-out: ENZYME ACTIVIY INDEX (% of variation) ADAR2
[4] = SH-SY5Y, 10 micromolar, 24 hours, read-out: ENZYME ACTIVIY INDEX (% of variation) ADARI
[5] = SH-SY5Y, 10 micromolar, 24 hours, read-out: ENZYME ACTIVIY INDEX (% of variation) ADARII
[6] = SH-SY5Y, 10 micromolar, 24 hours, read-out: ENZYME ACTIVIY INDEX (% of variation) NE
[7] = SH-SY5Y, 24 h, read-out: ENZYME ACTIVIY INDEX (% of variation) ADAR1
[8] = SH-SY5Y, 24 h, read-out: ENZYME ACTIVIY INDEX (% of variation) ADAR1 + 2
[9] = SH-SY5Y, 24 h, read-out: ENZYME ACTIVIY INDEX (% of variation) ADAR2
[10] = SH-SY5Y, 24 h, read-out: ENZYME ACTIVIY INDEX (% of variation) ADARI
[11] = SH-SY5Y, 24 h, read-out: ENZYME ACTIVIY INDEX (% of variation) ADARII
[12] = SH-SY5Y, 24 h, read-out: ENZYME ACTIVIY INDEX (% of variation) NE

| SMILES | percent change in mRNA expression at 10 µM (ADAR1b mRNA) | activation at 10 µM (5-HT2cR mRNA; [1]) | activation at 10 µM (5-HT2cR mRNA; [2]) | activation at 10 µM (5-HT2cR mRNA; [3]) | activation at 10 µM (5-HT2cR mRNA; [4]) | activation at 10 µM (5-HT2cR mRNA; [5]) | activation at 10 µM (5-HT2cR mRNA; [6]) | % change in ADAR1a mRNA expression at 10 µM (ADAR1a mRNA) | percent change in ADAR2 mRNA expression at 10 µM (ADAR2 mRNA) | activation at 10 µM (5-HT2cR mRNA; [7]) | activation at 10 µM (5-HT2cR mRNA; [8]) | activation at 10 µM (5-HT2cR mRNA; [9]) | activation at 10 µM (5-HT2cR mRNA; [10]) | activation at 10 µM (5-HT2cR mRNA; [11]) | activation at 10 µM (5-HT2cR mRNA; [12]) | ENZYME ACTIVIY INDEX (% of variation) EC (5-HT2cR mRNA; SH-SY5Y, 10 micromolar, 24 hours) | alteration of 5-HT2cR mRNA editing compared with that observed after INFα treatment (component analysis, FIG. 4) (5-HT2cR mRNA; SH-SY5Y cells, 48 hours, 10 μM) |
| --- | --- | --- | --- | --- | --- | --- | --- | --- | --- | --- | --- | --- | --- | --- | --- | --- | --- |
| CC(NC(C)(C)C)C(=O)c1cccc(Cl)c1 (centres unmarked) [Bupropion] | -51% | -16.3% | 42.6% | 68.9% | -8.9% | 34.7% | 5.3% | -66% | -40% |  |  |  |  |  |  |  |  |
| CC(C)C[C@H](CN)CC(=O)O [Pregabalin] | -43% |  |  |  |  |  |  | -33% | -36% | 2.5% | -8.7% | -6.2% | 0.4% | -8.2% | -0.1% |  |  |
| NC(=O)N1c2ccccc2C=Cc2ccccc21 [Carbamazepine] | -62% | -3% | 38.8% | 26% | 3% | 36.4% | -3.8% | 52% | -42% |  |  |  |  |  |  |  |  |
| CC[C@@H](C(N)=O)N1CCCC1=O [Levetiracetam] | -11% | 12% | -36.6% | 10.9% | 2.8% | -27.4% | -3.1% | -9% | -17% |  |  |  |  |  |  |  |  |
| CC1(C)O[C@@H]2[C@@H](CO[C@@]3(COS(N)(=O)=O)OC(C)(C)O[C@@H]23)O1 [Topiramate] | -46% | 14.4% | -19.5% | 11.4% | 8% | -13.5% | -8% | -44% | -60% |  |  |  |  |  |  |  |  |
| Nc1nnc(-c2cccc(Cl)c2Cl)c(N)n1 [Lamotrigine] | -26% | 5.9% | -24.6% | -23% | 0.1% | -24.3% | 0.9% | -26% | -32% |  |  |  |  |  |  |  |  |
| O=c1n(CCCN2CCN(c3cccc(Cl)c3)CC2)nc2ccccn12 [Trazodone] | -40% | 0% | 89.3% | 28.4% | 12.9% | 77.7% | 13.4% | -60% | 5% |  |  |  |  |  |  |  |  |
| NC(=O)OCC(COC(N)=O)c1ccccc1 [Felbamate] | -1% | 6.3% | -13.9% | -24.6% | 2.4% | -16% | -1.2% | -13% | 1% |  |  |  |  |  |  |  |  |
| NC(=O)N1c2ccccc2CC(=O)c2ccccc21 [Oxcarbazepine] | -18% | 1.1% | -25.6% | -25.9% | -3.9% | -25.6% | 4.8% | -28% | -15% |  |  |  |  |  |  | −65.2* % |  |
| CCNC(C)Cc1cccc(C(F)(F)F)c1 (centres unmarked) [Fenfluramine] | 23% |  |  |  |  |  |  | 7% | 27% | 4.2% | -43.3% | 0.7% | -4.8% | -34.8% | 4.5% |  |  |
| C[C@H](NC(=O)C(C)(C)Oc1ccc(C(F)(F)F)cn1)[C@@H](Cc1ccc(Cl)cc1)c1cccc(C#N)c1 [Taranabant] |  |  |  |  |  |  |  |  |  |  |  |  |  |  |  |  | similarly altered |
